Values of other authors as cited in PMC7436013, “Design, Synthesis, and Biological Investigation of Novel Classes of 3-Carene-Derived Potent Inhibitors of TDP1” (Molecules, 2020).

Assays:
TDP1 = system: TDP1; set-up: method as in PMID 31619021, PMID 30396105, PMID 30142660, PMID 29562592, PMID 27658793; conditions: Figure 1; ref [10]-[13],[16]-[18],[20],[22]; read-out: IC50 of known TDP1 inhibitors; cited from earlier work
Krebs-2 ascites = system: Krebs-2 ascites; set-up: method as in PMID 31878088; conditions: in vivo tumor model, ref [17]; cited from earlier work

CC(C)=CCC/C(C)=C/COc1ccc2c(-c3ccc(F)cc3)cc(=O)oc2c1 [compound 5]
IC50 (TDP1): 620 nM
effect on the antitumor effect of Tpc (Krebs-2 ascites): significant increase in the antitumor effect of Tpc
